Measurements: US20050267085A1, “Combined therapy for the treatment of Parkinson's disease” (UNIVERSITE LAVAL, priority 2004, published 2005)

Tests used:
[1] = test system: hemiparkinsonian MPTP-monkeys; assay: Ipsilateral and contralateral circling behavior in hemiparkinsonian MPTP-monkeys; assay type: in vivo, macaca fasicularis
Protocol: (§1) Six hemiparkinsonian ovariectomized female macaca fasicularis monkeys weighing 2.8-6.5 kg were used in this experiment. During induction of the parkinsonian syndrome, they received 1-methyl-4-phenyl-1,2,3,6-tetrahydropyridine (MPTP, 3 mg) via an Alzet pump during a period of 1-2 weeks according to the monkey. The procedure consisted of putting the pump in the left substantia nigra and the MPTP infused lesioned the dopaminergic cells. The animals were used at least 5 months after the induction of their hemiparkinsonian state at which time they had stabilized. For a further experimentation, 6 bilaterally-lesioned parkinsonian macaca fasicularis monkeys were used. The induction of the parkinsonian syndrome was performed according to the above-described methodology, except that the Alzet pump was installed so as to lesion dopaminergic cells of the substantia nigra in both brain hemispheres.
(§2) To determine the effect of levodopa, DHEA or combination thereof on parkinsonian monkeys, ipsilateral and contralateral circling was monitored in hemiparkinsonian monkeys while Parkinsonian score was determined in bilaterally-lesion parkinsonian monkeys. Hemiparkinsonian monkeys turn towards the ipsilateral side of the lesion (to the left) under basal conditions and upon dopaminergic stimulation this circling changes for the contralateral side (to the right). Parkinsonian score was determined in bilaterally-lesion parkinsonian monkeys according to the method known in the art. All received the same treatments and were their own controls. Monkeys were first treated with levodopa for priming until a stable antiparkinsonian behavior was observed. During the investigation of DHEA administered alone, priming of the monkeys was continued with administration of levodopa/benserazide (50/12.5 mg) given twice weekly. DHEA treatments were started on the third day after the last levodopa dose.
(§3) DHEA was administered at different doses (1, 5, and 15 mg/kg) by nasogastric gavage (n.g.) alone and in combination (DHEA: 1, 5, 10 and 15 mg/kg n.g.) with a s.c. T.L-Dopa. Threshold doses of levodopa, that is the minimal dose to obtain contralateral circling were sought for each of the MPTP-monkeys and varied from one monkey to another from 3 to 8 mg/kg (3, 4, 4.5, 5, 5, and 8 mg/kg). Higher doses of DHEA (25-100 mg/kg) alone or with T.L-Dopa were also tested in a similar paradigm.
Treatments were administered in the morning and each animal was recorded via a video camera system. Duration of locomotor activation lasted for 90 min for all hemiparkinsonian animals and treatments. […] Each treatment was repeated 2-3 times and averaged for each monkey.
Experimental data was compared using an ANOVA for repeated measures followed by post-hoc pair wise comparisons with Fisher's probability of least significant difference test (PLSD). A p<0.05 was required for the results to be considered statistically significant. Statistical comparison of square root transformation of the data was used to stabilize variance when required (D. C. Montgomery (1991) Third Edition, Design and analysis of experiments. ed. Whileys and Sons pp. 216).

[2] = test system: bilaterally-lesioned parkinsonian MPTP-monkeys; assay: Parkinsonian score and duration of levodopa effect in bilaterally-lesioned parkinsonian MPTP-monkeys; assay type: in vivo, macaca fasicularis
Protocol: as §1, §2, §3
Experimental data was compared using an ANOVA for repeated measures followed by post-hoc pair wise comparisons with Fisher's probability of least significant difference test (PLSD). A p<0.05 was required for the results to be considered statistically significant. […]

[3] = threshold dose of levodopa alone
[4] = DHEA 1 mg/kg n.g. added to threshold dose s.c. T.L-Dopa, compared to saline or T.L-Dopa alone
[5] = DHEA 5, 10 and 15 mg/kg n.g. combined with T.L-Dopa, compared to saline

SMILES: N[C@@H](Cc1ccc(O)c(O)c1)C(=O)O [Levodopa, L-3,4-dihydroxyphenylalanine]
- contralateral circling [1, 3]: increased
- ipsilateral circling [1, 3]: decreased
- overall ipsilateral-contralateral circling [1, 3]: reducing

SMILES: C[C@]12CC[C@H](O)CC1=CC[C@@H]1[C@@H]2CC[C@]2(C)C(=O)CC[C@@H]12 [DHEA, Dehydroepiandrosterone]
- Parkinsonian score [2, 4]: decreased
- increase of duration of levodopa effect ([2]; DHEA 1 and 5 mg/kg with threshold dose of levodopa, versus levodopa alone): approximately 40%
- Parkinsonian score [2, 5]: reduced
- Parkinsonian score ([2]; DHEA alone at different doses, n.g.): reduce
- contralateral circling (mean/30 min) [1, 4]: significantly increased
- contralateral circling (mean/30 min) [1, 5]: significantly increased
- levodopa-induced locomotor activity ([1]; DHEA added to minimal threshold doses of levodopa): potentiates
- contralateral circling (mean/30 min) ([1]; DHEA alone 1-15 mg/kg n.g., compared to saline treatment): significantly and similarly increased
- ipsilateral circling ([1]; DHEA alone or DHEA combined to T.L-Dopa, versus basal conditions or saline): decreased
- dose-response on circling behavior ([1]; DHEA alone or combined with levodopa): did not produce a significant dose-response
- Duration of the DHEA effect ([1]; DHEA alone, n.g.): 90 min
- effect on levodopa-induced change in ipsilateral, contralateral and ipsilateral-contralateral circling ([1]; optimal dose of DHEA for each monkey combined with threshold levodopa): significantly potentiated
